Test results: patent US20040116420A1 (priority 2001, published 2004)
pIC50: −log10 of the molar value.

Columns and labels:
[1] = molecular target: T1, HSV-1 protease (Human herpesvirus 1, UniProt P10210); test: Enzymatic assay for HSV-1 protease (assembly) inhibitor, fluorescence polarization; type: biochemical; settings: read-out: HSV-1 Enzyme inhibition IC50
T1 construct: 6xHis (N); made in house; host or cells: baculovirus expression system
Outline: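 Fluorescence polarization read-out: after avidin stop, cleavage of a biotinylated DTAF-labelled release-site peptide by recombinant N-His6 HSV-1 protease was compared with no-inhibitor wells. Enzyme and compound were preincubated 30 min, then substrate reacted 60 min, all at room temperature, pH 7.4 citrate buffer with TCEP.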

[2] = system: Vero cells; test: Cytotoxicity, Vero cells, Alamar Blue; type: cell-based; settings: 25 μM, 20 hours
Experimental: An Assay Method for Cytotoxicity
The Vero cells were sown on a 96-well plate and then cultured overnight. The culture supernatant was removed, and 200 μl of 2% FBS-DMEM comprising 25 μM of the test compound was added. In this case, a substance to which 2% FBS-DMEM not comprising any test compound had been added was determined as a control. These cells were incubated in the presence of 5% CO2 at 37° C. for 20 hours. Alamar Blue (20 μl) was added to the cells, and cells were incubated for about 6 hours until the color of the control changed. The ratio of the absorbance was assayed using a microplate reader for absorption, and the value relative to the control was determined to be the ratio of living cells.

[3] = system: HSV-1; test: Antiviral activity, HSV-1 in Vero cells, plaque method; type: cell-based; settings: Human alphaherpesvirus 1, 20 hours, 90% inhibition of plaque formation
Outline: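 This is a virus-yield read-out. The culture medium was frozen at −80° C and thawed, and the plaques it formed were counted. It came from Vero monolayers infected with 50,000 pfu HSV-1 and then exposed to the compound for 20 h at 37° C. EC90 is the concentration inhibiting 90% of plaque formation relative to the untreated infected control.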

T1 sequence (P10210 1-247): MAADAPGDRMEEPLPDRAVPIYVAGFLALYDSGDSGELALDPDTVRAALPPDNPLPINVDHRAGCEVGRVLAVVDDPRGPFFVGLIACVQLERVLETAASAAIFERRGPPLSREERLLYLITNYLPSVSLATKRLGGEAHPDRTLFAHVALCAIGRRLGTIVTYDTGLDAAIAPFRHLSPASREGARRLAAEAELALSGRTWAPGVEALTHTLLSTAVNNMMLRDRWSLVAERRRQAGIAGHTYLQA

| pIC50 [1] | EC90 [3] [µM] | Structure (SMILES) | Cell viability (% of control) [2] [%] |
| --- | --- | --- | --- |
| 5.48 | 7.8 | Cc1c(NC(=O)OC(C)(C)C)ccc2nc(N3C[C@H](OCc4ccccc4)C[C@H]3C(=O)NCc3ccncc3)oc(=O)c12 [Compound No.111, (2-{4R-Benzyloxy-2S-[(pyridin-4-ylmethyl)-carbamoyl]-pyrrolidin-1-yl}-5-methyl-4-oxo-4H-benzo[d][1,3]oxazin-6-yl)-carbamic acid tert-butyl ester] | 80.4 |
| 5.43 | > 12.5 | Cc1c(NC(=O)c2cccc(C#N)c2)ccc2nc(NC(C)(C)C(=O)N(C)CCc3ccccn3)oc(=O)c12 [Compound No.143, 3-Cyano-N-(5-methyl-2-{1-methyl-1-[methyl-(2-pyridin-2-yl-ethyl)-carbamoyl]-ethylamino}-4-oxo-4H-benzo[d][1,3]oxazin-6-yl)-benzamide] | 86.9 |
| 5.03 | > 12.5 | Cc1oc(C(C)(C)C)cc1C(=O)Nc1ccc2nc(NC(C)(C)C(=O)N(C)CCc3ccccn3)oc(=O)c2c1C [Compound No.174, 5-tert-Butyl-2-methyl-furan-3-carboxylic acid (5-methyl-2-{1-methyl-1-[methyl-(2-pyridin-2-yl-ethyl)-carbamoyl]-ethylamino}-4-oxo-4H-benzo[d][1,3]oxazin-6-yl)-amide] | 30.1 |
| < 4.70 | > 25 | Cc1c(NC(=O)OC(C)(C)C)ccc2nc(N[C@@H](CCc3ccccc3)C(=O)NCc3cccnc3)oc(=O)c12 [Compound No.40, (5-Methyl-4-oxo-2-{3-phenyl-1S-[(pyridin-3-ylmethyl)-carbamoyl]-propylamino}-4H-benzo[d][1,3]oxazin-6-yl)-carbamic acid tert-butyl ester] | 100.0 |
| 5.14 | > 12.5 | CC(=O)OC(C(=O)Nc1ccc2nc(NC(C)(C)C(=O)N(C)CCc3ccccn3)oc(=O)c2c1C)c1ccccc1 (stereo not drawn) [Compound No.192, Acetic acid (5-methyl-2-{1-methyl-1-[methyl-(2-pyridin-2-yl-ethyl)-carbamoyl]-ethylamino}-4-oxo-4H-benzo[d][1,3]oxazin-6-ylcarbamoyl)-phenyl-methyl ester] | 93.9 |
| 5.37 | > 12.5 | Cc1c(NC(=O)OC(C)(C)C)ccc2nc(N3CCCC[C@H]3C(=O)NCc3ccncc3)oc(=O)c12 [Compound No.104, (5-Methyl-4-oxo-2-{2S-[(pyridin-4-ylmethyl)-carbamoyl]-piperidin-1-yl}-4H-benzo[d][1,3]oxazin-6-yl)-carbamic acid tert-butyl ester] | 63.0 |
| 4.85 | 4.6 | Cc1c(NC(=O)OC(C)(C)C)ccc2nc(N[C@H](C(=O)N(C)CCc3cccnc3)C(C)(C)C)oc(=O)c12 [Compound No.66, (2-{2,2-Dimethyl-1S-[methyl-(2-pyridin-3-yl-ethyl)-carbamoyl]-propylamino}-5-methyl-4-oxo-4H-benzo[d][1,3]oxazin-6-yl)-carbamic acid tert-butyl ester] | 81.5 |
| 5.36 | > 12.5 | Cc1c(NC(=O)OC(C)(C)C)ccc2nc(N3CCCC[C@H]3C(=O)N(C)CCc3ccncc3)oc(=O)c12 [Compound No.108, (5-Methyl-2-{2S-[methyl-(2-pyridin-4-yl-ethyl)-carbamoyl]-piperidin-1-yl}-4-oxo-4H-benzo[d][1,3]oxazin-6-yl)-carbamic acid tert-butyl ester] | 97.9 |
| 5.64 | > 12.5 | Cc1c(NC(=O)c2ccccc2C(F)(F)F)ccc2nc(NC(C)(C)C(=O)N(C)CCc3ccccn3)oc(=O)c12 [Compound No.144, N-(5-Methyl-2-{1-methyl-1-[methyl-(2-pyridin-2-yl-ethyl)-carbamoyl]-ethylamino}-4-oxo-4H-benzo[d][1,3]oxazin-6-yl)-2-trifluoromethyl-benzamide] | 76.1 |
| 5.74 | 10.9 | Cc1c(NC(=O)c2cc(Cl)sc2Cl)ccc2nc(NC(C)(C)C(=O)N(C)CCc3ccccn3)oc(=O)c12 [Compound No.181, 2,5-Dichloro-thiophene-3-carboxylic acid (5-methyl-2-{1-methyl-1-[methyl-(2-pyridin-2-yl-ethyl)-carbamoyl]-ethylamino}-4-oxo-4H-benzo[d][1,3]oxazin-6-yl)-amide] | 44.3 |
| 5.62 | 5.4 | Cc1c(NC(=O)c2ccc(Br)cc2)ccc2nc(NC(C)(C)C(=O)N(C)CCc3ccccn3)oc(=O)c12 [Compound No.154, 4-Bromo-N-(5-methyl-2-{1-methyl-1-[methyl-(2-pyridin-2-yl-ethyl)-carbamoyl]-ethylamino}-4-oxo-4H-benzo[d][1,3]oxazin-6-yl)-benzamide] | 28.3 |
| 5.74 | > 12.5 | Cc1c(NC(=O)OC(C)(C)C)ccc2nc(N(C)[C@@H](C)C(=O)N(C)CCc3cccnc3)oc(=O)c12 [Compound No.77, [5-Methyl-2-(methyl-{1S-[methyl-(2-pyridin-3-yl-ethyl)-carbamoyl]-ethyl}-amino)-4-oxo-4H-benzo[d][1,3]oxazin-6-yl]-carbamic acid tert-butyl ester] | 94.4 |
| 5.01 | 11.8 | Cc1c(NC(=O)OC(C)(C)C)ccc2nc(N3Cc4ccccc4C[C@H]3C(=O)N(C)CCc3cccnc3)oc(=O)c12 [Compound No.100, (5-Methyl-2-{3S-[methyl-(2-pyridin-3-yl-ethyl)-carbamoyl]-3,4-dihydro-1H-isoquinolin-2-yl}-4-oxo-4H-benzo[d][1,3]oxazin-6-yl)-carbamic acid tert-butyl ester] | 44.1 |
| 5.77 | > 12.5 | Cc1c(NC(=O)OC(C)(C)C)ccc2nc(N3CCC[C@H]3C(=O)NCc3cccnc3)oc(=O)c12 [Compound No.87, (5-Methyl-4-oxo-2-{2S-[(pyridin-3-ylmethyl)-carbamoyl]-pyrrolidin-1-yl}-4H-benzo[d][1,3]oxazin-6-yl)-carbamic acid tert-butyl ester] | 92.4 |
| 5.35 | > 12.5 | Cc1c(NC(=O)C(C)(C)C)ccc2nc(NC(C)(C)C(=O)N(C)CCc3ccccn3)oc(=O)c12 [Compound No.136, 2,2-Dimethyl-N-(5-methyl-2-{1-methyl-1-[methyl-(2-pyridin-2-yl-ethyl)-carbamoyl]-ethylamino}-4-oxo-4H-benzo[d][1,3]oxazin-6-yl)-propionamide] | 81.8 |
| 5.59 | > 12.5 | Cc1c(NC(=O)OC(C)(C)C)ccc2nc(N3CCCC[C@H]3C(=O)NCc3cccnc3)oc(=O)c12 [Compound No.103, (5-Methyl-4-oxo-2-{2S-[(pyridin-3-ylmethyl)-carbamoyl]-piperidin-1-yl}-4H-benzo[d][1,3]oxazin-6-yl)-carbamic acid tert-butyl ester] | 68.9 |
| 5.92 | 5.8 | CCCc1ccc(C(=O)Nc2ccc3nc(NC(C)(C)C(=O)N(C)CCc4ccccn4)oc(=O)c3c2C)cc1 [Compound No.166, N-(5-Methyl-2-{1-methyl-1-[methyl-(2-pyridin-2-yl-ethyl)-carbamoyl]-ethylamino}-4-oxo-4H-benzo[d][1,3]oxazin-6-yl)-4-propyl-benzamide] | 15.9 |
| 5.13 | 5.9 | Cc1c(NC(=O)OC(C)(C)C)ccc2nc(N[C@@H](CC3CCCCC3)C(=O)N(C)CCc3ccncc3)oc(=O)c12 [Compound No.55, (2-{2-Cyclohexyl-1S-[methyl-(2-pyridin-4-yl-ethyl)-carbamoyl]-ethylamino}-5-methyl-4-oxo-4H-benzo[d][1,3]oxazin-6-yl)-carbamic acid tert-butyl ester] | 43.8 |
| 5.62 | 4.7 | Cc1c(NC(=O)OC(C)(C)C)ccc2nc(N[C@@H](CC(C)C)C(=O)N(C)Cc3ccccn3)oc(=O)c12 [Compound No.62, {5-Methyl-2-[3-methyl-1S-(methyl-pyridin-2-ylmethyl-carbamoyl)-butylamino]-4-oxo-4H-benzo[d][1,3]oxazin-6-yl}-carbamic acid tert-butyl ester] | 83.9 |

| Structure (SMILES) | pIC50 [1] | EC90 [3] [µM] | Cell viability (% of control) [2] [%] |
| --- | --- | --- | --- |
| CCCCOc1ccc(C(=O)Nc2ccc3nc(NC(C)(C)C(=O)N(C)CCc4ccccn4)oc(=O)c3c2C)cc1 [Compound No.165, 4-Butoxy-N-(5-methyl-2-{1-methyl-1-[methyl-(2-pyridin-2-yl-ethyl)-carbamoyl]-ethylamino}-4-oxo-4H-benzo[d][1,3]oxazin-6-yl)-benzamide] | 5.70 | 3.6 | 16.9 |
